Assay results: publication PMC11062899, “De novo development of small cyclic peptides that are orally bioavailable” (Nature Chemical Biology, 2023)
“And” between values parts separate entries of the source, which are not always exact repeats. Identical values can stand only once. Like-named read-outs stand apart in the source and are kept apart here.

Columns and labels:
[1] = Passive artificial membrane permeability (PAMPA);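 as to Permeability% Average: top well sample relative to theoretical equilibrium sample by TIC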
[2] = molecular target: T1, rat α-thrombin (Rattus norvegicus, UniProt P18292); experiment: Protease inhibition, Ki for rat α-thrombin (fluorogenic substrate Z-Gly-Gly-Arg-AMC); type: biochemical; conditions: for Rat alpha thrombin inhibition, slope normalized to DMSO: replicates R1-R3
T1 construct: rat α-thrombin (Molecular Innovations) were used at final concentrations of 2 nM and 3 nM; purchased Molecular Innovations
Description: (§1) The inhibition constants (Ki) of cyclic peptides were calculated by measuring thrombin inhibition in the presence of different concentrations of the cyclic peptides. […] Human α-thrombin (Molecular Innovations) and rat α-thrombin (Molecular Innovations) were used at final concentrations of 2 nM and 3 nM, respectively, and fluorogenic substrate (Z-Gly-Gly-Arg-AMC, Bachem) was used at a concentration of 50 μM. Enzymatic activity was determined by measuring fluorescent gain on a Tecan Infinite M200 Pro microplate reader (excitation: 360 nm, emission: 465 nm) or a PHERAstar FSX microplate reader (excitation: 380 nm, emission: 440 nm) for 30 min at 25 °C with a fluorescent readout every 3 min. The two instruments were controlled with Tecan Infinite M200 Pro instrument software (iControl, version 1.12) and PHERAstar FSX software (version 5.70, edition 8), respectively. Protease inhibition was calculated by comparing the enzymatic activity to a control without cyclic peptide.
(§2) Half maximal inhibitory concentration (IC50) values were determined using a four-parameter logistic regression model in GraphPad Prism 9 to fit sigmoidal curves to the acquired data points according to equation (2) below.2 y=b+a−b/1+10^(logIC50−x)p where a and b represent the measured inhibition maximum and minimum, respectively; x is the logarithm of peptide concentration; y is the thrombin activity compared to a control without the cyclic peptide; and p is the Hill coefficient.
(§3) Ki values were calculated using the IC50 and the Cheng–Prusoff equation (equation (3)).3 Ki=IC50/1+S0/Km where Km is the Michaelis–Menten constant of the enzyme for the substrate used in the assay, and [S]0 is the initial substrate concentration.

[3] = molecular target: human α-thrombin (Homo sapiens, UniProt P00734); experiment: Protease inhibition, Ki for human α-thrombin (fluorogenic substrate Z-Gly-Gly-Arg-AMC); type: biochemical; conditions: for Human alpha thrombin inhibition, slope normalized to DMSO: replicates R1-R3
Description: as §1, §2, §3

[4] = peptide concentration 1.00E+02 uM
[5] = peptide concentration 1.19E-05 uM
[6] = peptide concentration 1.22E-02 uM
[7] = peptide concentration 1.25E+01 uM
[8] = peptide concentration 1.53E-03 uM
[9] = peptide concentration 1.56E+00 uM
[10] = peptide concentration 1.91E-04 uM
[11] = peptide concentration 1.95E-01 uM
[12] = peptide concentration 2.38E-05 uM
[13] = peptide concentration 2.44E-02 uM
[14] = peptide concentration 2.50E+01 uM
[15] = peptide concentration 3.05E-03 uM
[16] = peptide concentration 3.12E+00 uM
[17] = peptide concentration 3.81E-04 uM
[18] = peptide concentration 3.91E-01 uM
[19] = peptide concentration 4.77E-05 uM
[20] = peptide concentration 4.88E-02 uM
[21] = peptide concentration 5.00E+01 uM
[22] = peptide concentration 6.10E-03 uM
[23] = peptide concentration 6.25E+00 uM
[24] = peptide concentration 7.63E-04 uM
[25] = peptide concentration 7.81E-01 uM
[26] = peptide concentration 9.54E-05 uM
[27] = peptide concentration 9.77E-02 uM

PAMPA permeability: % permeability ([1]; 50 μM, 12–18 h, acceptor concentration relative to equilibrium): 48 ± 19% | Permeability% (single replicates R1–R3) ([1]; 50 μM, 13 h (Fig. 5d)): 26.09% and 53.35% and 63.35% | Permeability% Average ([1]; 50 μM, 13 h (Fig. 5d)): 47.6% | Papp at 50 μM ([1]; PAMPA, pH 7.4): 56.2 nm/s | Ki ([2]; average of R1-R3, read-out: Rat alpha thrombin inhibition, Ki Average): 0.252 µM | Rat alpha thrombin inhibition, slope normalized to DMSO [2, 4]: 7.5 and 5.2 and 7.4 | Rat alpha thrombin inhibition, slope normalized to DMSO [2, 5]: 101.0 and 99.4 and 101.8 | Rat alpha thrombin inhibition, slope normalized to DMSO [2, 6]: 100.6 and 96.9 and 105.9 | Rat alpha thrombin inhibition, slope normalized to DMSO [2, 7]: 11.6 and 13.6 and 8.8 | Rat alpha thrombin inhibition, slope normalized to DMSO [2, 8]: 110.9 and 102.8 and 91.9 | Rat alpha thrombin inhibition, slope normalized to DMSO [2, 9]: 29.5 and 31.9 and 33.8 | Rat alpha thrombin inhibition, slope normalized to DMSO [2, 10]: 101.7 (2×) and 104.1 | Rat alpha thrombin inhibition, slope normalized to DMSO [2, 11]: 57.9 and 68.0 and 74.9 | Rat alpha thrombin inhibition, slope normalized to DMSO [2, 12]: 95.3 and 93.1 and 98.0 | Rat alpha thrombin inhibition, slope normalized to DMSO [2, 13]: 87.6 and 90.4 and 103.1 | Rat alpha thrombin inhibition, slope normalized to DMSO [2, 14]: 10.8 and 13.8 and 2.6 | Rat alpha thrombin inhibition, slope normalized to DMSO [2, 15]: 84.4 and 99.6 and 89.5 | Rat alpha thrombin inhibition, slope normalized to DMSO [2, 16]: 19.8 and 21.4 and 23.1 | Rat alpha thrombin inhibition, slope normalized to DMSO [2, 17]: 100.0 and 99.2 and 101.2 | Rat alpha thrombin inhibition, slope normalized to DMSO [2, 18]: 59.7 and 45.3 and 63.3 | Rat alpha thrombin inhibition, slope normalized to DMSO [2, 19]: 96.9 and 93.8 and 94.4 | Rat alpha thrombin inhibition, slope normalized to DMSO [2, 20]: 85.6 and 100.2 and 83.3 | Rat alpha thrombin inhibition, slope normalized to DMSO [2, 21]: 7.6 and 10.7 and 9.3 | Rat alpha thrombin inhibition, slope normalized to DMSO [2, 22]: 100.9 and 96.3 and 102.1 | Rat alpha thrombin inhibition, slope normalized to DMSO [2, 23]: 12.6 and 18.3 and 16.4 | Rat alpha thrombin inhibition, slope normalized to DMSO [2, 24]: 96.9 and 104.7 and 92.6 | Rat alpha thrombin inhibition, slope normalized to DMSO [2, 25]: 48.7 and 32.2 and 42.2 | Rat alpha thrombin inhibition, slope normalized to DMSO [2, 26]: 95.8 and 96.9 and 102.0 | Rat alpha thrombin inhibition, slope normalized to DMSO [2, 27]: 78.0 and 74.1 and 90.2 | IC50 ([2]; single replicates R1-R3, read-out: Rat alpha thrombin inhibition, IC50): 0.451 µM and 0.308 µM and 0.605 µM | Ki ([3]; average of R1-R3, read-out: Human alpha thrombin inhibition, Ki Average): 1.16 µM | Human alpha thrombin inhibition, slope normalized to DMSO [3, 4]: 21.2 and 22.5 and 13.5 | Human alpha thrombin inhibition, slope normalized to DMSO [3, 5]: 107.9 and 108.1 and 100.7 | Human alpha thrombin inhibition, slope normalized to DMSO [3, 6]: 45.0 and 106.0 and 79.1 | Human alpha thrombin inhibition, slope normalized to DMSO [3, 7]: 20.5 and 29.2 and 28.2 | Human alpha thrombin inhibition, slope normalized to DMSO [3, 8]: 70.8 and 98.2 and 101.6 | Human alpha thrombin inhibition, slope normalized to DMSO [3, 9]: 57.8 and 72.9 and 62.5 | Human alpha thrombin inhibition, slope normalized to DMSO [3, 10]: 100.2 and 106.6 and 100.4 | Human alpha thrombin inhibition, slope normalized to DMSO [3, 11]: 100.6 and 90.9 and 89.3 | Human alpha thrombin inhibition, slope normalized to DMSO [3, 12]: 109.7 and 103.6 and 106.2 | Human alpha thrombin inhibition, slope normalized to DMSO [3, 13]: 86.3 and 104.2 and 79.8 | Human alpha thrombin inhibition, slope normalized to DMSO [3, 14]: 13.8 and 27.1 and 20.7 | Human alpha thrombin inhibition, slope normalized to DMSO [3, 15]: 101.3 and 97.0 and 101.4 | Human alpha thrombin inhibition, slope normalized to DMSO [3, 16]: 19.7 and 40.6 and 23.4 | Human alpha thrombin inhibition, slope normalized to DMSO [3, 17]: 71.5 and 115.8 and 100.2 | Human alpha thrombin inhibition, slope normalized to DMSO [3, 18]: 64.9 and 85.6 and 86.8 | Human alpha thrombin inhibition, slope normalized to DMSO [3, 19]: 107.4 and 99.0 and 99.6 | Human alpha thrombin inhibition, slope normalized to DMSO [3, 20]: 103.0 and 102.1 and 95.7 | Human alpha thrombin inhibition, slope normalized to DMSO [3, 21]: 20.6 and 21.0 and 15.4 | Human alpha thrombin inhibition, slope normalized to DMSO [3, 22]: 86.7 and 105.1 and 95.4 | Human alpha thrombin inhibition, slope normalized to DMSO [3, 23]: 41.3 and 33.5 and 28.3 | Human alpha thrombin inhibition, slope normalized to DMSO [3, 24]: 100.0 and 108.8 and 108.6 | Human alpha thrombin inhibition, slope normalized to DMSO [3, 25]: 74.4 and 82.4 and 81.1 | Human alpha thrombin inhibition, slope normalized to DMSO [3, 26]: 104.7 and 102.3 and 88.7 | Human alpha thrombin inhibition, slope normalized to DMSO [3, 27]: 98.8 and 95.6 and 95.8 | IC50 ([3]; single replicates R1-R3, read-out: Human alpha thrombin inhibition, IC50): 1.3 µM and 1.67 µM and 1.53 µM
Structure (SMILES): O=C1C[C@H]2CCCN2C(=O)[C@H](Cc2ccccc2)NC(=O)[C@@H](NC(=O)c2ccc(Cl)s2)CCCC=CCCCCN1 [compound 44]
Ki ([2]; single replicates R1-R3, read-out: Rat alpha thrombin inhibition, Ki): 250 nM (2×) and 171 nM (2×) and 335 nM (2×) | Ki ([3]; single replicates R1-R3, read-out: Human alpha thrombin inhibition, Ki): 1 µM (2×) and 1.29 µM (2×) and 1.18 µM (2×)
